Our source for the IC50 values is patent US9249147B2, “Tyrosine kinase inhibitors” (CHEMBRIDGE CORPORATION, priority 2008, dated 2016).

In general, IC50 refers to the concentration needed to halve the response being measured.

Holding throughout (format): biochemical
One test concerns the target T1, IRK (Homo sapiens, UniProt P06213).
T1 construct: 6×His- or GST-tagged kinase domain fragments of the corresponding RTKs expressed in baculovirus system; host or cells: baculovirus system
Kind of test: IRK (insulin receptor kinase) assay. The settings on record: Table 1; read-out: IRK IC50. On the procedure: (§1) To determine inhibition of several tyrosine kinases, such as IGF1R, InsR, Alk, TrkA and Jak2, kinase assays are conducted using either Kinase-Glo (Promega) or AlphaScreen (PerkinElmer) kinase assay platforms. The Kinase-Glo Luminescent Kinase Assay is a homogeneous method for measuring kinase activity by determining the amount of ATP remaining after a kinase reaction. The luminescent signal is proportional to the amount of ATP and inversely proportional to the amount of kinase activity. Tyrosine kinase PT66 AlphaScreen Assay is a high-sensitivity homogeneous, anti-phosphotyrosine antibody-mediated luminescent proximity method measuring incorporation of phosphate in synthetic poly(Glu-Tyr) substrate. The kinase preparations used consist of purified recombinant, 6×His- or GST-tagged kinase domain fragments of the corresponding RTKs expressed in baculovirus system.
(§2) Compounds with a range of concentrations 40 μM, 20 μM, 10 μM, 5 μM, 2.5 μM, 1.25 μM, 0.625 μM, 0.3125 μM, 0.15625 μM and 0.078125 μM were incubated with NPM-ALK, which was produced in insect cells as a 6×HIS-tagged fusion protein and purified using nickel-charged resin chromatography, for 30 minutes at RT in the presence of 10 μM ATP and 7.0 ng biotinylated poly-GT. A 1:1 mixture of […] and donor beads was then added to the reaction and incubated for an additional 60 minutes at RT. The assay was conducted on a MultiPROBE liquid handling workstation (PerkinElmer) in a 384-well plate format with a total reaction volume of 40 μL per well. Working stocks of all compounds were dissolved in 100% DMSO and serial dilutions of the compounds were performed using kinase buffer (50 mM Tris-HCl (pH 7.5), 5 mM MgCl2, 5 mM MnCl2, 2 mM DTT (added freshly before use), 0.01% Tween-20) containing 5% DMSO. […] Data were collected as optical readings at 520-680 nm on a Fusion™ microplate analyzer (PerkinElmer), and IC50 and Ki values calculated using PRISM3.0 software (GraphPad Software, Inc., San Diego, Calif.). The same assay was also used with minor modifications to assess the IC50 and Ki values for selected compounds against five other tyrosine kinases (IRK, IGF1R, Flt3, Abl, Src), all of which were purchased from commercial vendors. PolyGT-Biotin was bought from CIS Biointernational Cat. #61GT0BLD; ATP—from Sigma Cat. # A7699; sodium orthovanadate—from Sigma Cat. #S-6508; phosphotyrosine (PT66) assay kit from PerkinElmer Cat. #6760602M; automated workstation tips (20 μL): PerkinElmer Cat. #6000657; and OptiPlate-384 (white)—from PerkinElmer Cat. #6007299.

In a further test the target is ALK (Homo sapiens, UniProt Q9UM73). Kind of test: ALK kinase assay (Kinase-Glo / AlphaScreen, purified NPM-ALK). The settings on record: Table 1; read-out: ALK IC50. Also noted: fused to the complete intracytoplasmic portion of ALK containing the functional tyrosine kinase domain; 6xHis; made in house; host or cells: insect cells; the other entry of the earlier key: NPM1 (P06748, Nucleophosmin). For orientation: Kinase-Glo measures the ATP left after a reaction by luminescence.

A further test addresses T2, IGF1R (Homo sapiens, UniProt P08069).
T2 construct: 6×His- or GST-tagged kinase domain fragments of the corresponding RTKs expressed in baculovirus system; host or cells: baculovirus system
Kind of test: IGF1R kinase assay. The settings on record: Table 1; read-out: IGF1R IC50. On the procedure:
as §1, §2

ALK, sequence (Q9UM73 with tags, fused parts or gaps): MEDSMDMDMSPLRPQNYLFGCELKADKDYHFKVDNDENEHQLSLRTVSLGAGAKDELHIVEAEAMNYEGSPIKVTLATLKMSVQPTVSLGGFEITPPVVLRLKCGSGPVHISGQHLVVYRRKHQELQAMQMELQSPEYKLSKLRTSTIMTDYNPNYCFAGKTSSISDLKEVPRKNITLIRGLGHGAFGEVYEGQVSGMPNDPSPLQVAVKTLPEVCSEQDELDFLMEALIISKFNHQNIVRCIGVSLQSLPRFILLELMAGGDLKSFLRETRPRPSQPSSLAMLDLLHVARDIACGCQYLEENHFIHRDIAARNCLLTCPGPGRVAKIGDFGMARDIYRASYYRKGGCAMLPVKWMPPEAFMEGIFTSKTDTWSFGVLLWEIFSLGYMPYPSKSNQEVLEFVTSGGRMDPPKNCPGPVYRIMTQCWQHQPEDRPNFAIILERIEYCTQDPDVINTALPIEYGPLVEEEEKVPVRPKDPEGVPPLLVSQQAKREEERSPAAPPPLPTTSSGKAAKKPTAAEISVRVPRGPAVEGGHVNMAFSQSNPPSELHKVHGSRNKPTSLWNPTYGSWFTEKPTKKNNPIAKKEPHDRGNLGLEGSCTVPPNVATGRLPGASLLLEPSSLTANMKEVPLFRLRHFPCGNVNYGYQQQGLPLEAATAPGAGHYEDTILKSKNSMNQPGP
T1 sequence (P06213 1023-1298 limits assumed): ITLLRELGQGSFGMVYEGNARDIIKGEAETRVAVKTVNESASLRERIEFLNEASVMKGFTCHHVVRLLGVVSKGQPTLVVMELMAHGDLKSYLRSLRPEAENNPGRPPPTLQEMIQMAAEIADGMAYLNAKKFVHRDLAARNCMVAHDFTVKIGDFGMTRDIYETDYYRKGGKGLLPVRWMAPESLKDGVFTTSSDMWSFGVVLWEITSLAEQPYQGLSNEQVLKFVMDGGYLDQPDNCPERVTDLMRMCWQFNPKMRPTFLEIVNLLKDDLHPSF
T2 sequence (P08069 999-1274 limits assumed): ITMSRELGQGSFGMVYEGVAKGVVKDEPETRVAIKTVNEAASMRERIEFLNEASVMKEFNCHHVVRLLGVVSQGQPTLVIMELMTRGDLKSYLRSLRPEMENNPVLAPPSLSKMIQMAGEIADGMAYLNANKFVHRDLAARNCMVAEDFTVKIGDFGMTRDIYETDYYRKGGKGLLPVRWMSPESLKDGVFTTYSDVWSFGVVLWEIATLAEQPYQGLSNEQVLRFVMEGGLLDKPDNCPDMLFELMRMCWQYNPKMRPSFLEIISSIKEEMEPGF

On to `CC(Cc1cccs1)Nc1cc[nH]c(=O)c1-c1nc2cc3c(cc2[nH]1)C(=O)N(CCCN1CCCC1)C3=O` (centres unmarked), for which the results for the IC50 at IRK, at ALK and at IGF1R were > 1000 nM, 100 to 250 nM and > 1000 nM, respectively.

As for `C[C@H](Cc1cccs1)Nc1cc[nH]c(=O)c1-c1nc2cc3c(cc2[nH]1)C(=O)N(CCCN1CCCC1)C3=O`, the IC50 on IRK, at ALK and on IGF1R was > 1000 nM in each case.

Regarding `C[C@H](Cc1cccs1)Nc1cc[nH]c(=O)c1-c1nc2cc3c(cc2[nH]1)C(=O)N(CCCN1CCCC1)C3`, the values for the concentration for half-maximal inhibition (IC50) on IRK, at ALK and on IGF1R were 250 to 1000 nM, > 1000 nM and > 1000 nM, respectively.

Turning to `CCc1ccc(CC(C)Nc2cc[nH]c(=O)c2-c2nc3cc4c(cc3[nH]2)C(=O)N(CCCN2CCCC2)C4)s1` (centres unmarked), the IC50 on ALK and on IGF1R was > 1000 nM each time.

`COc1ccc(-c2ccc(CC(C)Nc3cc[nH]c(=O)c3-c3nc4cc5c(cc4[nH]3)C(=O)N(CCCN3CCCC3)C5)s2)cc1` (centres unmarked): the 50% inhibitory concentration (IC50) at ALK and at IGF1R was > 1000 nM each time.

For the compound `CC(Cc1ccc(-c2ccccc2)s1)Nc1cc[nH]c(=O)c1-c1nc2cc3c(cc2[nH]1)C(=O)N(CCCN1CCCC1)C3` (centres unmarked), the IC50 at ALK and on IGF1R was > 1000 nM throughout.

As to `CC(Cc1ccc(Cl)s1)Nc1cc[nH]c(=O)c1-c1nc2cc3c(cc2[nH]1)C(=O)N(CCCN1CCCC1)C3` (centres unmarked), the IC50 at ALK and on IGF1R was 250 to 1000 nM in each case.

`COc1ccsc1C[C@H](C)Nc1cc[nH]c(=O)c1-c1nc2cc3c(cc2[nH]1)CN(CCCN1CCCC1)C3=O`: the 50% inhibitory concentration (IC50) at ALK and on IGF1R was 250 to 1000 nM each time.

Take `C[C@H](Nc1cc[nH]c(=O)c1-c1nc2cc3c(cc2[nH]1)C(=O)N(CCCN1CCCC1)C3=O)[C@H](O)c1ccccc1`: the IC50 lay within 100 to 250 nM on ALK and 250 to 1000 nM at IGF1R.

Regarding `C[C@@H](Cc1cccs1)Nc1cc[nH]c(=O)c1-c1nc2cc3c(cc2[nH]1)C(=O)N(CCN1CCCC1)C3=O`, the IC50 on ALK lay within 100 to 250 nM; on IGF1R it was 250 to 1000 nM.

Regarding `C[C@@H](Cc1cccs1)Nc1cc[nH]c(=O)c1-c1nc2cc3c(cc2[nH]1)C(=O)N(CCCN1CCCC1)C3=O`, the IC50 on ALK was 100 to 250 nM; at IGF1R it was > 1000 nM.

`C[C@@H](Cc1cccs1)Nc1cc[nH]c(=O)c1-c1nc2cc3c(cc2[nH]1)C(=O)N(CCCCN1CCCC1)C3`: the IC50 on ALK is 100 to 250 nM; at IGF1R, > 1000 nM.

Take `C[C@@H](Cc1sccc1C(F)(F)F)Nc1cc[nH]c(=O)c1-c1nc2cc3c(cc2[nH]1)CN(CCN1CCCC1)C3=O`: the IC50 on ALK lay in the range of 10 to 100 nM; on IGF1R, 250 to 1000 nM.

On to `Cc1ccsc1C[C@H](C)Nc1cc[nH]c(=O)c1-c1nc2cc3c(cc2[nH]1)CN(CCN1CCC[C@@H]1C)C3=O`, for which the IC50 at ALK fell in the range of 100 to 250 nM; at IGF1R, 250 to 1000 nM.

Take `Cc1ccsc1C[C@H](C)Nc1cc[nH]c(=O)c1-c1nc2cc3c(cc2[nH]1)C(=O)N(CC(C)CN1CCCC1)C3` (some centres unmarked): the half-inhibitory concentration (IC50) is 10 to 100 nM on ALK and 250 to 1000 nM at IGF1R.

With `Cc1cc(F)ccc1C[C@H](C)Nc1cc[nH]c(=O)c1-c1nc2cc3c(cc2[nH]1)C(=O)N(CCN1CCCC1)C3`, the figures for the IC50 on IRK, at ALK and at IGF1R were 250 to 1000 nM, 10 to 100 nM and > 1000 nM, respectively.

Turning to `Cc1ccc(F)cc1C[C@H](C)Nc1cc[nH]c(=O)c1-c1nc2cc3c(cc2[nH]1)C(=O)N(CCN(C)C)C3=O`, the half-maximal inhibitory concentration (IC50) on IRK is > 1000 nM; on ALK, 100 to 250 nM; on IGF1R it was 100 to 250 nM.

Turning to `Cc1ccc(F)cc1C[C@H](C)Nc1cc[nH]c(=O)c1-c1nc2cc3c(cc2[nH]1)CNC3=O`, the half-maximal inhibitory concentration (IC50) on IRK was > 1000 nM; at ALK, 10 to 100 nM; at IGF1R, 250 to 1000 nM.

For the compound `COc1ccc(F)cc1C[C@H](C)Nc1cc[nH]c(=O)c1-c1nc2cc3c(cc2[nH]1)CN(CCN1CCCC1)C3=O`, the IC50 is 250 to 1000 nM on IRK, 10 to 100 nM on ALK and 100 to 250 nM on IGF1R.

Regarding `COc1ccc(F)cc1C[C@H](C)Nc1cc[nH]c(=O)c1-c1nc2cc3c(cc2[nH]1)CN(CCN(C)C)C3=O`, the IC50 lay in the range of 250 to 1000 nM at IRK, 10 to 100 nM at ALK and 100 to 250 nM at IGF1R.

As for `Cc1ccc(F)cc1C[C@H](C)Nc1cc[nH]c(=O)c1-c1nc2cc3c(cc2[nH]1)CN(CCN1CCOCC1)C3=O`, the concentration for half-maximal inhibition (IC50) at IRK is > 1000 nM; on ALK it was 100 to 250 nM; at IGF1R, 100 to 250 nM.

As to `COc1ccc(F)cc1C[C@H](C)Nc1cc[nH]c(=O)c1-c1nc2cc3c(cc2[nH]1)CN(CCN1CCOCC1)C3=O`, the IC50 on IRK is > 1000 nM; on ALK it was 100 to 250 nM; at IGF1R, 100 to 250 nM.

For the compound `C[C@@H](Cc1cc(F)ccc1Cl)Nc1cc[nH]c(=O)c1-c1nc2cc3c(cc2[nH]1)CN(CCN1CCCC1)C3=O`, the 50% inhibitory concentration (IC50) on IRK was 250 to 1000 nM; at ALK, 100 to 250 nM; on IGF1R, 250 to 1000 nM.

On to `Cc1ccc(C(F)(F)F)cc1C[C@H](C)Nc1cc[nH]c(=O)c1-c1nc2cc3c(cc2[nH]1)CN(CCN(C)C)C3=O`, for which the half-inhibitory concentration (IC50) was 250 to 1000 nM on IRK, 250 to 1000 nM at ALK and 100 to 250 nM on IGF1R.

Turning to `Cc1ccc(N(C)C)cc1C[C@H](C)Nc1cc[nH]c(=O)c1-c1nc2cc3c(cc2[nH]1)CN(CCN1CCCC1)C3=O`, the IC50 on IRK, on ALK and on IGF1R was > 1000 nM in each case.

As for `Cc1ccc(C(F)(F)F)cc1C[C@H](C)Nc1cc[nH]c(=O)c1-c1nc2cc3c(cc2[nH]1)CN(CCN1CCCC1)C3=O`, the half-inhibitory concentration (IC50) on IRK is 250 to 1000 nM; on ALK it was > 1000 nM; on IGF1R, > 1000 nM.

For `C[C@@H](Cc1cc(F)cc(F)c1F)Nc1cc[nH]c(=O)c1-c1nc2cc3c(cc2[nH]1)CN(CCN1CCOCC1)C3=O`, the IC50 at IRK is > 1000 nM; at ALK, 10 to 100 nM; at IGF1R, 250 to 1000 nM.

Turning to `Cc1ccc(C(F)(F)F)cc1C[C@H](C)Nc1cc[nH]c(=O)c1-c1nc2cc3c(cc2[nH]1)CN(CCN1CCOCC1)C3=O`, the IC50 is > 1000 nM at IRK, 250 to 1000 nM on ALK and > 1000 nM at IGF1R.

`C[C@@H](Cc1ccccc1Cl)Nc1cc[nH]c(=O)c1-c1nc2cc3c(cc2[nH]1)CN(CCN1CCCC1)C3=O`: the IC50 at IRK was 100 to 250 nM; at ALK, 250 to 1000 nM; at IGF1R, > 1000 nM.

Consider `Cc1ccc(Cl)cc1C[C@H](C)Nc1cc[nH]c(=O)c1-c1nc2cc3c(cc2[nH]1)CN(CCN1CCCC1)C3=O`, for which the values for the IC50 at IRK, on ALK and on IGF1R were 100 to 250 nM, 250 to 1000 nM and > 1000 nM, respectively.

With `COc1ccc(C)c(C[C@H](C)Nc2cc[nH]c(=O)c2-c2nc3cc4c(cc3[nH]2)CN(CCN2CCCC2)C4=O)c1`, the IC50 is 250 to 1000 nM on IRK, 10 to 100 nM on ALK and > 1000 nM at IGF1R.

For the compound `COc1ccc(OC)c(C[C@H](C)Nc2cc[nH]c(=O)c2-c2nc3cc4c(cc3[nH]2)CN(CCN2CCCC2)C4=O)c1`, the values for the half-inhibitory concentration (IC50) on IRK, on ALK and on IGF1R were 250 to 1000 nM, 100 to 250 nM and > 1000 nM, respectively.

`COc1cc(F)c(F)c(C[C@H](C)Nc2cc[nH]c(=O)c2-c2nc3cc4c(cc3[nH]2)CN(CCN2CCCC2)C4=O)c1OC`: the IC50 was 250 to 1000 nM at IRK, 10 to 100 nM on ALK and > 1000 nM at IGF1R.

As to `CCc1ccccc1C[C@H](C)Nc1cc[nH]c(=O)c1-c1nc2cc3c(cc2[nH]1)CN(CCN1CCCC1)C3=O`, the results for the IC50 at IRK, at ALK and on IGF1R were 250 to 1000 nM, 10 to 100 nM and > 1000 nM, respectively.

For the compound `CN1CCC(N2C(=O)c3cc4nc(-c5c(N[C@@H](CO)Cc6ccccc6)cc[nH]c5=O)[nH]c4cc3C2=O)CC1`, the concentration for half-maximal inhibition (IC50) at IRK was > 1000 nM; on ALK, 100 to 250 nM; at IGF1R, > 1000 nM.

Regarding `CNCCN1Cc2cc3[nH]c(-c4c(N[C@@H](C)Cc5cc(F)ccc5C)cc[nH]c4=O)nc3cc2C1=O` [drawing 348], the IC50 at ALK lay within 250 to 1000 nM; on IGF1R, 10 to 100 nM.
